According to patent US12247011B2, “Selective inhibitors of NLRP3 inflammasome” (NodThera Limited, priority 2017, dated 2025):
Structures can show the parent of a compound that is named as a salt.

System: IL-1β release upon NLRP3 activation in peripheral blood mononuclear cells (PBMC)
Test: PBMC IC50 Determination Assay
Assay type: cell-based
Settings: Homo sapiens, PBMC, read-out: PBMC IC50
Protocol: PBMC IC50 Determination Assay
The compounds of the present disclosure were tested for their inhibitory activity against IL-1β release upon NLRP3 activation in peripheral blood mononuclear cells (PBMC).
Isolated cells were seeded into the wells of a 96-well plate and incubated for 3 h with lipopolysaccharide (LPS). Following medium exchange, the compounds of the present disclosure were added (a single compound per well) and the cells were incubated for 30 min. Next, the cells were stimulated either with ATP (5 mM) or nigericin (10 μM) for 1 h and the cell culture media from the wells were collected for further analysis.
The release of IL-1β into the media was determined by a quantitative detection of IL-1β in the media using an IL-1β enzyme-linked immunosorbent assay (ELISA) Ready-SET-Go!, eBioscience cat. […] Subsequently, plates were blocked with blocking buffer for 1 h at room temperature (rt) and after washing with a buffer (PBS with 0.05% Tween-20) incubated with protein standard and culture media. […] Plates were washed and incubated with HRP-streptavidin for 30 min at rt and washed again. The signal was developed after addition of 3,3,5,5-tetramethylbenzidine-peroxidase (TMB) until colour appeared and the reaction was stopped by 2 M H2SO4. A microplate spectrophotometer (BioTek) was used to detect signals with 450 nm. The detection range of IL-1β ELISA was 2-150 ng/ml.

Row | Compound | IC50 [nM]
1 | CN(C)Cc1cnn(C[C@@H](OC(=O)Nc2c3c(cc4c2CCC4)CCC3)C(=O)O)c1 [Compound 98, (2R)-3-{4-[(dimethylamino)methyl]-1H-pyrazol-1-yl}-2-{[(1,2,3,5,6,7-hexahydro-s-indacen-4-yl)carbamoyl]oxy}propanoic acid hydrochloride] | 1000 to 10000

Same assay, conditions: Homo sapiens; LPS-primed PBMC, 30 min compound, stimulated with ATP (5 mM) or nigericin (10 μM) for 1 h; IL-1β ELISA; read-out: PBMC IC50

Row | Compound | IC50 [nM]
2 | CCOC(=O)C(Cn1cccn1)OC(=O)Nc1c(F)cccc1Cl (centres unmarked) [Compound 50, Ethyl 2-{[(2-chloro-6-fluorophenyl)carbamoyl]oxy}-3-(1H-pyrazol-1-yl)propanoate] | 100 to 1000
3 | CCOC(=O)COC(=O)Nc1cc(C(F)(F)F)ccc1F [Compound 7, Ethyl 2-({[2-fluoro-5-(trifluoromethyl)phenyl]carbamoyl}oxy)acetate] | 1000 to 10000
4 | CCOC(=O)[C@@H](Cn1cncc1C#N)OC(=O)Nc1c2c(cc3c1CCC3)CCC2 [Compound 90, Ethyl (2R)-3-(5-cyano-1H-imidazol-1-yl)-2-{[(1,2,3,5,6,7-hexahydro-s-indacen-4-yl)carbamoyl]oxy}propanoate] | 1000 to 10000
5 | CCOC(=O)[C@@H](Cn1cc(C(F)(F)F)cn1)OC(=O)Nc1c2c(cc3c1CCC3)CCC2 [Compound 97, Ethyl (2R)-2-{[(1,2,3,5,6,7-hexahydro-s-indacen-4-yl)carbamoyl]oxy}-3-[4-(trifluoromethyl)-1H-pyrazol-1-yl]propanoate] | 100 to 1000
6 | CC(C)OC(=O)C(Cc1ncc(C#N)cn1)OC(=O)Nc1c2c(cc3c1CCC3)CCC2 (centres unmarked) [Compound 130, Propan-2-yl 3-(5-cyanopyrimidin-2-yl)-2-{[(1,2,3,5,6,7-hexahydro-s-indacen-4-yl)carbamoyl]oxy}propanoate] | 10 to 100
7 | CCOC(=O)[C@@H](Cn1ncnc1C)OC(=O)Nc1c2c(cc3c1CCC3)CCC2 [Compound 103, Ethyl (2R)-2-{[(1,2,3,5,6,7-hexahydro-s-indacen-4-yl)carbamoyl]oxy}-3-(5-methyl-1H-1,2,4-triazol-1-yl)propanoate] | 10 to 100
8 | CCOC(=O)COC(=O)Nc1cccc2ccccc12 [Compound 4, Ethyl 2-{[(naphthalen-1-yl)carbamoyl]oxy}acetate] | 1000 to 10000
9 | O=C(Nc1c2c(cc3c1CCC3)CCC2)O[C@H](Cc1cnccn1)C(=O)O [Compound 109, (2R)-2-{[(1,2,3,5,6,7-hexahydro-s-indacen-4-yl)carbamoyl]oxy}-3-(pyrazin-2-yl)propanoic acid] | 100 to 1000
10 | N#Cc1cnn(C[C@@H](OC(=O)Nc2c3c(cc4c2CCC4)CCC3)C(=O)O)c1 [Compound 82, (2R)-3-(4-cyano-1H-pyrazol-1-yl)-2-{[(1,2,3,5,6,7-hexahydro-s-indacen-4-yl)carbamoyl]oxy}propanoic acid] | 10 to 100
11 | CC1CCCC(NC(=O)OC(Cc2ncccn2)C(=O)OC(C)C)C1 (centres unmarked) [Compound 118, Propan-2-yl 2-{[(3-methylcyclohexyl)carbamoyl]oxy}-3-(pyrimidin-2-yl)propanoate] | 1000 to 10000
12 | O=C(Nc1c2c(cc3c1CCC3)CCC2)O[C@H](Cn1ccnc1)C(=O)O [Compound 79, (2R)-2-{[(1,2,3,5,6,7-hexahydro-s-indacen-4-yl)carbamoyl]oxy}-3-(1H-imidazol-1-yl)propanoic acid] | 1000 to 10000
13 | CCOC(=O)C(Cn1cc(F)cn1)OC(=O)Nc1c2c(cc3c1CCC3)CCC2 (centres unmarked) [Compound 80, Ethyl 3-(4-fluoro-1H-pyrazol-1-yl)-2-{[(1,2,3,5,6,7-hexahydro-s-indacen-4-yl)carbamoyl]oxy}propanoate] | 10 to 100
14 | CCOC[C@@H](OC(=O)Nc1c2c(cc3c1CCC3)CCC2)C(=O)OCC [Compound 95, Ethyl (2R)-3-ethoxy-2-{[(1,2,3,5,6,7-hexahydro-s-indacen-4-yl)carbamoyl]oxy}propanoate] | 100 to 1000
15 | CCOC(=O)COC(=O)Nc1cc(C)ccc1C [Compound 37, Ethyl 2-{[(2,5-dimethylphenyl)carbamoyl]oxy}acetate] | 100 to 1000
16 | COCC(OC(=O)Nc1c2c(cc3c1CCC3)CCC2)C(=O)O (centres unmarked) [Compound 38, 2-{[(1,2,3,5,6,7-hexahydro-s-indacen-4-yl)carbamoyl]oxy}-3-methoxypropanoic acid] | 1000 to 10000
17 | CC(C)OC(=O)C(Cc1ncccn1)OC(=O)Nc1c(F)cccc1F (centres unmarked) [Compound 124, Propan-2-yl 2-{[(2,6-difluorophenyl)carbamoyl]oxy}-3-(pyrimidin-2-yl)propanoate] | 100 to 1000
18 | CCOC(=O)[C@@H](Cn1cc(Cl)cn1)OC(=O)Nc1c2c(cc3c1CCC3)CCC2 [Compound 88, Ethyl (2R)-3-(4-chloro-1H-pyrazol-1-yl)-2-{[(1,2,3,5,6,7-hexahydro-s-indacen-4-yl)carbamoyl]oxy}propanoate] | 10 to 100
19 | CCOC(=O)C(Cc1ccccn1)OC(=O)Nc1c2c(cc3c1CCC3)CCC2 (centres unmarked) [Compound 18, Ethyl 2-(((1,2,3,5,6,7-hexahydro-s-indacen-4-yl)carbamoyl)oxy)-3-(pyridin-2-yl)propanoate] | 100 to 1000
20 | CC(C)OC(=O)C(Cc1ncccn1)OC(=O)N[C@H]1CCCC[C@@H]1C (relative stereo) [Compound 129, Propan-2-yl 2-{[(trans-2-methylcyclohexyl)carbamoyl]oxy}-3-(pyrimidin-2-yl)propanoate] | 1000 to 10000

Row | Compound | IC50 [nM]
21 | N#Cc1cnn(C[C@@H](OC(=O)Nc2c3c(cc4c2CCC4)CCC3)C(=O)OCc2ccccc2)c1 [Compound 77, Benzyl (2R)-3-(4-cyano-1H-pyrazol-1-yl)-2-{[(1,2,3,5,6,7-hexahydro-s-indacen-4-yl)carbamoyl]oxy}propanoate] | 10 to 100
22 | COC(=O)COC(=O)Nc1c2c(cc3c1CCC3)CCC2 [Compound 29, Methyl 2-{[(1,2,3,5,6,7-hexahydro-s-indacen-4-yl)carbamoyl]oxy}acetate] | 1000 to 10000
23 | CCOC(=O)COC(=O)Nc1c(C)cccc1C [Compound 8, Ethyl 2-{[(2,6-dimethylphenyl)carbamoyl]oxy}acetate] | 100 to 1000
24 | CCOC(=O)COC(=O)Nc1cc(C(F)(F)F)ccc1Cl [Compound 35, Ethyl 2-({[2-chloro-5-(trifluoromethyl)phenyl]carbamoyl}oxy)acetate] | > 10000
25 | O=C(COC(=O)Nc1c2c(cc3c1CCC3)CCC2)OC1CC1 [Compound 39, cyclopropyl 2-{[(1,2,3,5,6,7-hexahydro-s-indacen-4-yl)carbamoyl]oxy}acetate] | 1000 to 10000
26 | CC(C)OC(=O)C(Cc1cnc(C#N)cn1)OC(=O)Nc1c2c(cc3c1CCC3)CCC2 (centres unmarked) [Compound 119, Propan-2-yl 3-(5-cyanopyrazin-2-yl)-2-{[(1,2,3,5,6,7-hexahydro-s-indacen-4-yl)carbamoyl]oxy}propanoate] | < 10
27 | CCOC(=O)C(Cn1cncc1C)OC(=O)Nc1c2c(cc3c1CCC3)CCC2 (centres unmarked) [Compound 81, Ethyl 2-{[(1,2,3,5,6,7-hexahydro-s-indacen-4-yl)carbamoyl]oxy}-3-(5-methyl-1H-imidazol-1-yl)propanoate] | 1000 to 10000
28 | CCOC(=O)C(Cc1cccnc1)OC(=O)Nc1c2c(cc3c1CCC3)CCC2 (centres unmarked) [Compound 12, Ethyl 2-{[(1,2,3,5,6,7-hexahydro-s-indacen-4-yl)carbamoyl]oxy}-3-(pyridin-3-yl)propanoate] | 10 to 100
29 | O=C(COC(=O)Nc1c2c(cc3c1CCC3)CCC2)OC1CCC1 [Compound 23, Cyclobutyl 2-{[(1,2,3,5,6,7-hexahydro-s-indacen-4-yl)carbamoyl]oxy}acetate] | 100 to 1000
30 | CCOC(=O)COC(=O)Nc1c(C(C)C)cccc1C(C)C [Compound 34, Ethyl 2-({[2,6-bis(propan-2-yl)phenyl]carbamoyl}oxy)acetate] | 1000 to 10000
31 | CCOC(=O)C(Cn1cccn1)OC(=O)Nc1c(C)cccc1C#N (centres unmarked) [Compound 57, Ethyl 2-{[(2-cyano-6-methylphenyl)carbamoyl]oxy}-3-(1H-pyrazol-1-yl)propanoate] | > 10000
32 | CCOC(=O)C(Cn1cccn1)OC(=O)Nc1ccccc1 (centres unmarked) [Compound 45, Ethyl 2-[(phenylcarbamoyl)oxy]-3-(1H-pyrazol-1-yl)propanoate] | > 10000
33 | CCOC(=O)C(Cn1cccn1)OC(=O)Nc1c(F)cc(F)cc1F (centres unmarked) [Compound 73, Ethyl 3-(1H-pyrazol-1-yl)-2-{[(2,4,6-trifluorophenyl)carbamoyl]oxy}propanoate] | 100 to 1000
34 | CCOC(=O)C(Cn1ccc(C)n1)OC(=O)Nc1c2c(cc3c1CCC3)CCC2 (centres unmarked) [Compound 72, Ethyl 2-{[(1,2,3,5,6,7-hexahydro-s-indacen-4-yl)carbamoyl]oxy}-3-(3-methyl-1H-pyrazol-1-yl)propanoate] | 10 to 100
35 | CCOC(=O)[C@@H](C)OC(=O)Nc1c2c(cc3c1CCC3)CCC2 [Compound 19, Ethyl (2R)-2-{[(1,2,3,5,6,7-hexahydro-s-indacen-4-yl)carbamoyl]oxy}propanoate] | 1000 to 10000
36 | O=C(Nc1c2c(cc3c1CCC3)CCC2)OC(Cn1cccn1)C(=O)O (centres unmarked) [Compound 40, 2-{[(1,2,3,5,6,7-hexahydro-s-indacen-4-yl)carbamoyl]oxy}-3-(1H-pyrazol-1-yl)propanoic acid] | 100 to 1000
37 | CCOC(=O)C(Cn1cccn1)OC(=O)NC1CCCCC1 (centres unmarked) [Compound 53, ethyl 2-[(cyclohexylcarbamoyl)oxy]-3-(1H-pyrazol-1-yl)-propanoate] | 1000 to 10000
38 | CCOC(=O)COC(=O)Nc1ccccc1C(C)C [Compound 15, Ethyl 2-(((2-isopropylphenyl)carbamoyl)oxy)acetate] | 1000 to 10000
